For 16 compounds, T/C results are on record in PubChem BioAssay AID256 (DTP/NCI, 2004).

Several values for one entry are separate records, joined by “and”; a condition that tells them apart may be missing. Identical values can stand only once. Inconclusive results and toxic doses are left out.

In this assay the test system is CD2F1 mice, L1210 leukemia ip, survival T/C. Nature of the assay: NCI In Vivo Anticancer Drug Screen. Data for tumor model L1210 Leukemia (intraperitoneal) in CD2F1 (CDF1) mice. Particulars: higher = longer survival. A digest of the protocol: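 Antitumor effect is scored in animals hosting a serially transplanted tumor. Values compare compound-dosed animals against vehicle-only controls as a simple quotient.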

The mark [1] stands for this setting: endpoint: mean survival time, dose: 100.0 mg/kg/injection, schedule: Q01DX009 (ip), vehicle: saline with Tween-80.
The mark [2] stands for this setting: endpoint: mean survival time, dose: 200.0 mg/kg/injection, schedule: Q01DX009 (ip), vehicle: saline with Tween-80.
The mark [3] stands for this setting: endpoint: mean survival time, dose: 400.0 mg/kg/injection, schedule: Q01DX009 (ip), vehicle: saline with Tween-80.
[4] abbreviates: endpoint: mean survival time, dose: 25.0 mg/kg/injection, schedule: Q01DX009 (ip), vehicle: Klucel (hydroxypropylcellulose) (HPC).
Where [5] appears, read: endpoint: mean survival time, dose: 50.0 mg/kg/injection, schedule: Q01DX009 (ip), vehicle: Klucel (hydroxypropylcellulose) (HPC).
Where [6] appears, read: endpoint: mean survival time, dose: 100.0 mg/kg/injection, schedule: Q01DX009 (ip), vehicle: Klucel (hydroxypropylcellulose) (HPC).
Where [7] appears, read: endpoint: mean survival time, dose: 100.0 mg/kg/injection, schedule: Q04DX003 (ip), vehicle: saline with Tween-80.
Setting [8] is: endpoint: mean survival time, dose: 200.0 mg/kg/injection, schedule: Q04DX003 (ip), vehicle: saline with Tween-80.
Where [9] appears, read: endpoint: mean survival time, dose: 400.0 mg/kg/injection, schedule: Q04DX003 (ip), vehicle: saline with Tween-80.

Turning to `CN(C)N=Nc1ccc(C(=O)O)cc1`, the T/C was 112 % of control (endpoint: mean survival time, dose: 25.0 mg/kg/injection, schedule: Q01DX009 (ip), vehicle: saline); 96 % of control (endpoint: mean survival time, dose: 25.0 mg/kg/injection, schedule: Q04DX003 (ip), vehicle: saline); 124 % of control (endpoint: mean survival time, dose: 45.0 mg/kg/injection, schedule: Q01DX009 (ip), vehicle: saline); 124 % of control (endpoint: mean survival time, dose: 50.0 mg/kg/injection, schedule: Q01DX009 (ip), vehicle: saline); 102 % of control (endpoint: mean survival time, dose: 50.0 mg/kg/injection, schedule: Q04DX003 (ip), vehicle: saline); 154 % of control (endpoint: mean survival time, dose: 65.0 mg/kg/injection, schedule: Q01DX009 (ip), vehicle: saline). For the same compound, the T/C runs as follows: (endpoint: mean survival time, dose: 100.0 mg/kg/injection, schedule: Q01DX009 (ip), vehicle: saline) 172 % of control; (endpoint: mean survival time, dose: 100.0 mg/kg/injection, schedule: Q04DX003 (ip), vehicle: saline) 109 % of control; (endpoint: mean survival time, dose: 200.0 mg/kg/injection, schedule: Q01DX009 (ip), vehicle: saline) 90 % of control; (endpoint: mean survival time, dose: 200.0 mg/kg/injection, schedule: Q04DX003 (ip), vehicle: saline) 123 % of control; (endpoint: mean survival time, dose: 400.0 mg/kg/injection, schedule: Q04DX003 (ip), vehicle: saline) 103 % of control; (endpoint: median survival time, dose: 25.0 mg/kg/injection, schedule: Q01DX005 (ip), vehicle: saline) 122 % of control. In addition, the T/C was 116 % of control (endpoint: median survival time, dose: 36.0 mg/kg/injection, schedule: Q01DX005 (ip), vehicle: saline); 124 % of control (endpoint: median survival time, dose: 50.0 mg/kg/injection, schedule: Q01DX005 (ip), vehicle: saline); 151 % of control and 170 % of control (endpoint: median survival time, dose: 100.0 mg/kg/injection, schedule: Q01DX005 (ip), vehicle: saline); 179 % of control (endpoint: median survival time, dose: 166.6 mg/kg/injection, schedule: Q01DX005 (ip), vehicle: saline); 112 % of control (endpoint: median survival time, dose: 200.0 mg/kg/injection, schedule: Q01DX005 (ip), vehicle: saline).
With `CCN1C(=O)/C(=C\C=C2/SCCN2C)OC1=S`, the T/C is, setting by setting: (endpoint: mean survival time, dose: 75.0 mg/kg/injection, schedule: Q01DX001 (ip), vehicle: other) 92 % of control; (endpoint: mean survival time, dose: 150.0 mg/kg/injection, schedule: Q01DX001 (ip), vehicle: other) 100 % of control; (endpoint: mean survival time, dose: 300.0 mg/kg/injection, schedule: Q01DX001 (ip), vehicle: other) 94 % of control.
For `c1ccc(P(=N[P+](c2ccccc2)(c2ccccc2)c2ccccc2)(c2ccccc2)c2ccccc2)cc1`, the T/C runs as follows: (endpoint: mean survival time, dose: 0.75 mg/kg/injection, schedule: Q01DX009 (ip), vehicle: saline) 106 % of control; (endpoint: mean survival time, dose: 1.5 mg/kg/injection, schedule: Q01DX009 (ip), vehicle: saline) 103 % of control; (endpoint: mean survival time, dose: 3.13 mg/kg/injection, schedule: Q01DX009 (ip), vehicle: saline with Tween-80) 94 % of control; (endpoint: mean survival time, dose: 3.13 mg/kg/injection, schedule: Q04DX002 (ip), vehicle: saline with Tween-80) 102 % of control; (endpoint: mean survival time, dose: 6.25 mg/kg/injection, schedule: Q04DX002 (ip), vehicle: saline with Tween-80) 110 % of control; (endpoint: mean survival time, dose: 12.5 mg/kg/injection, schedule: Q04DX002 (ip), vehicle: saline with Tween-80) 90 % of control and 93 % of control.
On to `NC(C(=O)O)C(N)C(=O)O` (stereo not drawn), for which the T/C is 94 % of control under setting [1], 96 % of control under setting [2] and 96 % of control under setting [3].
`CCOC(=O)C1(C(=O)OCC)CCC2Nc3ccccc3C(=O)N21` (stereo not drawn): the T/C (endpoint: mean survival time, dose: 100.0 mg/kg/injection, schedule: Q01DX001 (ip), vehicle: Klucel (hydroxypropylcellulose) (HPC)) is 108 % of control; the T/C (endpoint: mean survival time, dose: 200.0 mg/kg/injection, schedule: Q01DX001 (ip), vehicle: Klucel (hydroxypropylcellulose) (HPC)) was 108 % of control; the T/C (endpoint: mean survival time, dose: 400.0 mg/kg/injection, schedule: Q01DX001 (ip), vehicle: Klucel (hydroxypropylcellulose) (HPC)) was 96 % of control.
As for `O=S(=O)(F)c1cc(Cl)c(O)c(S(=O)(=O)F)c1`, the T/C under setting [4] was 97 % of control, the T/C under setting [5] was 103 % of control and the T/C under setting [6] was 101 % of control.
Take `CN(C)CCCNc1cccc2c1C(=O)c1cccc(NCCCN(C)C)c1C2=O`: the T/C (endpoint: mean survival time, dose: 8.0 mg/kg/injection, schedule: Q01DX009 (ip), vehicle: acid diluted with saline) was 102 % of control; the T/C (endpoint: mean survival time, dose: 16.0 mg/kg/injection, schedule: Q01DX009 (ip), vehicle: acid diluted with saline) was 102 % of control; the T/C (endpoint: mean survival time, dose: 32.0 mg/kg/injection, schedule: Q01DX009 (ip), vehicle: acid diluted with saline) was 106 % of control; the T/C (endpoint: mean survival time, dose: 64.0 mg/kg/injection, schedule: Q01DX009 (ip), vehicle: acid diluted with saline) was 100 % of control.
In the case of `CCCCCCCCCCCCCCCCCCNC(=O)Nc1ccc(CC)cc1`, the T/C was 98 % of control under setting [1]; 94 % of control under setting [7]; 109 % of control under setting [2]; 89 % of control under setting [8]; 110 % of control under setting [3]; 93 % of control under setting [9].
As for `NCCNc1ccccc1C(=O)O`, the T/C (endpoint: median survival time, dose: 50.0 mg/kg/injection, schedule: Q04DX002 (ip), vehicle: saline with Tween-80) is 111 % of control; the T/C (endpoint: median survival time, dose: 100.0 mg/kg/injection, schedule: Q04DX002 (ip), vehicle: saline with Tween-80) is 100 % of control; the T/C (endpoint: median survival time, dose: 200.0 mg/kg/injection, schedule: Q04DX002 (ip), vehicle: saline with Tween-80) was 100 % of control; the T/C (endpoint: median survival time, dose: 400.0 mg/kg/injection, schedule: Q04DX002 (ip), vehicle: saline with Tween-80) is 111 % of control.
Regarding `COc1ccc(OC)c(C2N(Cc3ccccc3N(C)C)CCCN2Cc2ccccc2N(C)C)c1`, the T/C under setting [7] was 92 % of control and the T/C under setting [8] was 88 % of control.
On to `O=NN(CCCl)C(=O)Nc1ccc2[nH]c3ccccc3c2c1`, for which the T/C is, setting by setting: under setting [4], 101 % of control; under setting [5], 116 % of control; under setting [6], 118 % of control; (endpoint: mean survival time, dose: 177.0 mg/kg/injection, schedule: Q01DX009 (ip), vehicle: saline with Tween-80) 91 % of control; (endpoint: mean survival time, dose: 200.0 mg/kg/injection, schedule: Q01DX009 (ip), vehicle: Klucel (hydroxypropylcellulose) (HPC)) 123 % of control; under setting [3], 104 % of control.
In the case of `CCCc1cc(C(C)=O)c[n+](C2OC(COC(=O)c3ccccc3)C(OC(=O)c3ccccc3)C2O)c1` (stereo not drawn), the T/C reads like this: (endpoint: mean survival time, dose: 3.13 mg/kg/injection, schedule: Q01DX005 (ip), vehicle: distilled water + Tween-80) 109 % of control; (endpoint: mean survival time, dose: 6.25 mg/kg/injection, schedule: Q01DX005 (ip), vehicle: distilled water + Tween-80) 92 % of control; (endpoint: mean survival time, dose: 12.5 mg/kg/injection, schedule: Q01DX005 (ip), vehicle: distilled water + Tween-80) 93 % of control; (endpoint: mean survival time, dose: 25.0 mg/kg/injection, schedule: Q01DX005 (ip), vehicle: distilled water + Tween-80) 89 % of control; (endpoint: mean survival time, dose: 50.0 mg/kg/injection, schedule: Q01DX005 (ip), vehicle: distilled water + Tween-80) 90 % of control and 97 % of control.
Consider `C1CCC(C2CCCC[N-]2)[N-]C1.C1CCC(C2CCCC[N-]2)[N-]C1.O=C(O)C(=O)O.[Ru+4]` (stereo not drawn), for which the T/C runs as follows: (endpoint: mean survival time, dose: 3.13 mg/kg/injection, schedule: Q04DX003 (ip), vehicle: water) 101 % of control; (endpoint: mean survival time, dose: 6.25 mg/kg/injection, schedule: Q04DX003 (ip), vehicle: water) 93 % of control; (endpoint: mean survival time, dose: 12.5 mg/kg/injection, schedule: Q04DX003 (ip), vehicle: water) 96 % of control; (endpoint: mean survival time, dose: 25.0 mg/kg/injection, schedule: Q04DX003 (ip), vehicle: water) 93 % of control; (endpoint: mean survival time, dose: 50.0 mg/kg/injection, schedule: Q04DX003 (ip), vehicle: water) 93 % of control; (endpoint: mean survival time, dose: 100.0 mg/kg/injection, schedule: Q04DX003 (ip), vehicle: water) 95 % of control. Moreover, the T/C (endpoint: mean survival time, dose: 200.0 mg/kg/injection, schedule: Q04DX003 (ip), vehicle: water) was 91 % of control.
On to `Oc1ccc(SSc2ccc(O)cc2)cc1`, for which the T/C is, setting by setting: (endpoint: mean survival time, dose: 100.0 mg/kg/injection, schedule: Q01DX009 (ip), vehicle: other) 98 % of control; (endpoint: mean survival time, dose: 200.0 mg/kg/injection, schedule: Q01DX009 (ip), vehicle: other) 101 % of control; (endpoint: mean survival time, dose: 400.0 mg/kg/injection, schedule: Q01DX009 (ip), vehicle: other) 104 % of control.
Turning to `O=C(c1ccccc1)N1CC2CC3OC3c3cccc1c32` (stereo not drawn), the T/C was 102 % of control (endpoint: mean survival time, dose: 50.0 mg/kg/injection, schedule: Q01DX009 (ip), vehicle: saline with Tween-80); 98 % of control under setting [1]; 94 % of control under setting [2].
For the compound `OCCN1CCSC1=S`, the T/C is 101 % of control under setting [7], 97 % of control under setting [8] and 92 % of control under setting [9].
